Reference: patent publication US20230103704A1, “HUMAN ANTI-IN[…] FOR THE […] OF IN[…] ISSUES” (priority 2020, published 2023)
Values joined by “and” are separate entries in the source; they are usually repeats but may differ in a detail not shown here. Equal entries are not always repeated. “Also recorded” adds a separate entry of the source. Marks after values point to notes of the source that are not given here.

What was measured:
[1] = Side effects of inhaled vasoactive intestinal peptide in previous trials; assay type: in vivo, human
[2] = may be as low as; cited from earlier work
[3] = system: pulmonary arterial hypertension (PAH); test: Case: inhaled Aviptadil in a patient with severe pulmonary arterial hypertension; assay type: in vivo, human
Procedure: A patient with severe pulmonary arterial hypertension (PAH), associated with collagen vascular disease, presented with signs of right ventricular decompensation, with an initial pulmonary vascular resistance (PVR) of 1413 dyn s cm^−5. The patient was treated before with bosentan for 3 months. This therapy was discontinued due to increased liver enzymes. PAH-specific medication was changed to triple therapy comprising inhaled iloprost and systemic sildenafil and ambrisentan. The patient developed peripheral edema, right ventricular hypertrophy, right ventricular systolic pressure (RVSP) 97 mm Hg, TAPSE (tricuspid annular plane systolic excursion) 17 mm, 6 min walking test 290 m. A repeated prostanoid therapy was refused by the patient. Due to the lack of other treatment options, treatment with inhaled Aviptadil was initiated at a dose of 4×140 μg/ml per day (560 μg/day) with overnight break, droplet characteristics of a MMAD of 3.4 μm per emitted particle (nebulizer: M-neb-dose+, NEBU-TEC, Eisenfeld, Germany). 90% of the dose were delivered at the mouthpiece (SK-211, NEBU-TEC, Eisenfeld, Germany). Inhalation time per treatment was 12 minutes. […] 6 months later the 6 min walking test was increased to 340 m, 12 months later to 410 m. 3 years later an ongoing improvement was noted, with 6 min walking distances between 430-475 m and still persistent PAH, but good right ventricular function of TAPSE 22 mm. This dramatic improvement of the patient over time is attributed to the effect of inhaled Aviptadil.

[4] = system: sarcoidosis of the lung; test: Case: inhaled Aviptadil in a patient with severe sarcoidosis of the lung (KSQ); assay type: in vivo, human; conditions: for King's College Sarcoidosis Questionnaire (KSQ) score: 280 μg per day inhaled
Procedure: A patient with severe sarcoidosis of the lung indicated for therapeutic treatment suffered from unproductive chronic cough, dyspnea on exertion and chronic fatigue. […] Therapy was initiated at a dose of 4×70 μg/ml per day dosage (280 μg per day with overnight break; nebulizer: M-neb-dose+, NEBU-TEC, Eisenfeld, Germany; mouthpiece; SK-211, NEBU-TEC, Eisenfeld, Germany). Therapeutic benefit was measured by the newly established and well validated quality of life questionnaire for sarcoidosis, the King's College Sarcoidosis Questionnaire (KSQ; Patel et al. (2013) Thorax 68: 57-65). Therein an increase in score by 5 over time indicates significant clinical improvement. The patient started treatment at a score of 66, improved after 3 months of treatment to score 71, and after 6 months of treatment to score 77, which is 11 points higher than at beginning of treatment with Aviptadil.

[5] = system: CoViD-19; test: Individual curing attempts for CoViD-19 with Aviptadil, oxygen demand; assay type: in vivo, human
Procedure: Example 18: Individual Curing Attempts for the Therapy of CoViD-19 with Aviptadil 3×66 μg Daily Per Inhalationem (Oxygen Demand Via Oxygen Nasal Cannula in L Per Minute (l/min))

[6] = assay type: physicochemical
Procedure: Aviptadil can be obtained, e.g., from Bachem AG, Bubendorf, Switzerland, in GMP quality.
The experimental procedure was carried out pursuant to Ph. Eur. 2.9.44 (Preparations for Nebulisation: Characterisation). A cascade impactor (Next Generation Impactor (NGI), Copley Scientific Ltd., Nottingham, UK) was used to determine the respective percentage for each fraction of the nebulized particles.
The thus generated aerosol was delivered to the cascade impactor by means of a mouthpiece (SK-211, NEBU-TEC, Eisenfeld, Germany).
The nebulization chamber (yellow stamp, 250 μl liquid discharge) was filled. The puff profile configured at the breath simulator was chosen in such a way that a correct simulation of inhalation by means of the nebulizer was ensured. The corresponding time was recorded.
Single values obtained for each cascade were added. […] MMAD, FPF and FPM were calculated from the obtained values: […]

[7] = system: CoViD-19 infected patients at risk for ARDS; conditions: human, in vivo
[8] = system: Patients with SARS-CoV-2; test: Study of aviptadil inhalation versus placebo in CoViD-19 patients; assay type: in vivo, human; conditions: during treatment, 28 days inhalative
From the text: A study examines the positive effect of aviptadil inhalation (dosage example 17) in CoViD-19 patients.
Patients with SARS-CoV-2 are randomized into two groups, one with 28 days aviptadil inhalative, one with 28 days placebo inhalative.

[9] = system: ARDS; conditions: systemic administration, cited from earlier work
[10] = system: PBMCs stimulated with beryllium; test: Case: inhaled Aviptadil in a patient with Chronic Beryllium Disease, PBMC proliferation and cytokines; assay type: in vivo, human; conditions: after 6 months of treatment
From the text: A patient who was continuously exposed to beryllium at their workplace developed Chronic Beryllium Disease (CBD). This was diagnosed by tests performed on peripheral blood and bronchoalveolar lavage (BAL) mononuclear cells. […] A test called beryllium lymphocyte proliferation test (BeLPT) confirmed the CBD diagnosis. Due to the lack of available treatment options for CBD, the patient qualified for the Early Access Program treatment with inhaled Aviptadil. Therapy was initiated at a dose of 4×70 μg/ml per day dosage (280 μg per day with overnight break; nebulizer: M-neb-dose+, NEBU-TEC, Eisenfeld, Germany; mouthpiece; SK-211, NEBU-TEC, Eisenfeld, Germany). After 6 months of treatment, the proliferation rate of PBMCs stimulated with beryllium (0.1 mM) from the patient was inhibited by 100% by Aviptadil.

[11] = Aviptadil aerosol from M-neb dose+ MN-300/8 tested with COPLEY next generation impactor; assay type: physicochemical
Procedure: Using the M-neb® dose^+ mesh nebulizer MN-300/8 and the respective mouthpiece, Aviptadil has been tested with the COPLEY next generation impactor (NGI). The mass median aerodynamic diameter (MMD) of Aviptadil dissolved in 0.9% NaCl was 3.3-3.5 μm per emitted particle. The number of those particles <5 μm=85.70%, and the dose delivered at the mouthpiece was 90.2% of the tested dosages.
Aviptadil has been tested in 0.9% NaCl solution at different drug concentrations (35 μg/ml, 70 μg/ml, 140 μg/ml, 200 μg/ml, 250 μg/ml, 400 μg/ml).

[12] = estimated values with 25 l/min Highflow with oxygen from 72 to 44%
[13] = oxygen nasal cannula, 3×66 μg daily, one table line per patient
[14] = oxygen nasal cannula, 3×66 μg daily, one table line per patient, listed as Aviptadil
[15] = 0.1 mg/ml in physiological saline

CC[C@H](C)[C@H](NC(=O)[C@H](CO)NC(=O)[C@H](CC(N)=O)NC(=O)[C@H](CC(C)C)NC(=O)[C@H](Cc1ccc(O)cc1)NC(=O)[C@H](CCCCN)NC(=O)[C@H](CCCCN)NC(=O)[C@@H](NC(=O)[C@H](C)NC(=O)[C@H](CCSC)NC(=O)[C@H](CCC(N)=O)NC(=O)[C@H](CCCCN)NC(=O)[C@H](CCCNC(=N)N)NC(=O)[C@H](CC(C)C)NC(=O)[C@H](CCCNC(=N)N)NC(=O)[C@@H](NC(=O)[C@H](Cc1ccc(O)cc1)NC(=O)[C@H](CC(N)=O)NC(=O)[C@H](CC(=O)O)NC(=O)[C@@H](NC(=O)[C@H](Cc1ccccc1)NC(=O)[C@@H](NC(=O)[C@H](C)NC(=O)[C@H](CC(=O)O)NC(=O)[C@H](CO)NC(=O)[C@@H](N)Cc1c[nH]cn1)C(C)C)[C@@H](C)O)[C@@H](C)O)C(C)C)C(=O)N[C@@H](CC(C)C)C(=O)N[C@@H](CC(N)=O)C(N)=O [vasoactive intestinal peptide]
side effects found with systemic administration [1]: lacks the side effects; also recorded: lacks these side effects
half-life in blood [2]: about 2 minutes
clinical course ([3]; 560 μg/day inhaled): gradual improvement
6 min walking distances ([3]; 3 years later): 430-475 m
TAPSE ([3]; 3 years later, 17 mm before): 22 mm
6 min walking test ([3]; 6 months later, 560 μg/day inhaled, 290 m before): 340 m
6 min walking test ([3]; 12 months later, 560 μg/day inhaled): 410 m
King's College Sarcoidosis Questionnaire (KSQ) score ([4]; after 3 months, score 66 at start): 71
KSQ score higher than at beginning of treatment ([4]; after 6 months): 11 points
King's College Sarcoidosis Questionnaire (KSQ) score ([4]; after 6 months): 77
O2 Day 1 [5, 12]: 15* l/min
O2 Day 2 [5, 12]: 15* l/min
O2 Day 3 [5, 12]: 14* l/min
O2 Day 4 [5, 12]: 11* l/min
O2 Day 5 [5, 12]: 6* l/min
O2 Day 6 [5, 12]: 6* l/min
O2 Day 11 [5, 13]: 6 L/min
O2 Day 12 [5, 13]: 3.3 L/min
O2 Day 13 [5, 13]: 2 L/min
O2 Day 14 [5, 13]: 1.5 L/min
O2 Day 15 [5, 13]: 1 L/min
O2 Day 16 [5, 13]: 0.5 L/min
O2 Day 17 [5, 13]: 0 L/min
O2 Day 1 [5, 14]: 5 L/min and 3 L/min and 2 L/min and 1.5 L/min
O2 Day 2 [5, 14]: 4 l/min and 3 l/min (2×) and 2 l/min
O2 Day 3 [5, 14]: 6 l/min and 4 l/min and 3 l/min (2×) and 2 l/min
O2 Day 4 [5, 14]: 5 l/min and 4 l/min and 2 l/min (3×)
O2 Day 5 [5, 14]: 4 l/min and 3 l/min and 1 l/min (2×) and 0 l/min
O2 Day 6 [5, 14]: 3 l/min and 2 l/min (2×) and 0 l/min
O2 Day 7 [5, 14]: 2 l/min (2×) and 1 l/min and 4 l/min
O2 Day 8 [5, 14]: 0 l/min and 1 l/min (2×) and 5.5 l/min
O2 Day 9 [5, 14]: 1 l/min (2×) and 4.7 l/min
O2 Day 10 [5, 14]: 0 l/min (2×) and 5.5 l/min
MMAD [6, 15]: 3.40 μm
released dosage at the mouthpiece as share of the nominal value [6, 15]: 80%
released dosage ([6]; 0.1 mg/ml in physiological saline, at the mouthpiece): 0.08 mg
MMAD per emitted particle ([6]; Example 11, 140 μg/ml, M-neb-dose+): 3.4 μm
dose delivered at the mouthpiece ([6]; Example 11, mouthpiece SK-211): 90%
time of aerosol release ([6]; corresponds to 30 strokes/breaths): 3 min
Arterio-alveolar oxygen difference (AaDO2) [7]: lower
need of oxygen supplementation [7]: lower need of oxygen supplementation
oxygenation (SpO2/FiO2 quotient) [7]: better oxygenation
rate of progression to ARDS [7]: reduced rate of progression to ARDS
respiratory rate [7]: decrease of respiratory rate
T-cells expressing CD28 promoting inflammation [8]: diminished
TNF release in the lung [8]: diminished
regulatory T-cells dampening inflammation [8]: increased
systemic side effects ([9]; some of the patients): hypotension
effect on ARDS ([9]; trial discontinued): lack of positive effect
production of cytokines TNF-alpha, IL-17 [10]: significantly diminished
dose delivered at the mouthpiece, of the tested dosages [11]: 90.2%
linearity of aerosol output rates at the mouthpiece over increasing numbers of breathing cycles ([11]; 35 to 400 μg/ml in 0.9% NaCl): excellent linearity
mass median aerodynamic diameter (MMD) per emitted particle ([11]; dissolved in 0.9% NaCl): 3.3-3.5 μm
number of particles <5 μm ([11]; dissolved in 0.9% NaCl): 85.70%
